Laboratory results as given in US10391079B2, “Methods of diagnosing and treating Alzheimer's disease with S-equol” (Ausio Pharmaceuticals, LLC, priority 2016, dated 2019).
“Also recorded” adds a separate entry of the source.

Experiments:
[1] = tested on: platelet mitochondria cytochrome oxidase (COX); assay: Platelet mitochondria COX activity referenced to CS activity (COX/CS) in S-equol pilot study; format: in vivo, human; settings: for COX/CS Visit 3 (Mean ± SEM): wash-out, 2 weeks placebo after S-equol
Protocol: (§1) Subjects received a two week supply of medication, which uniformly consisted of placebo, and were instructed to take the study medication twice a day. At the end of this initial two-week period participants returned to the ADC clinical trials unit for their first study visit (visit 1; lead-in evaluation). Visit 1 procedures included an assessment of study medication compliance, vital signs, a query for perceived side effects, the Montreal Cognitive Assessment (MoCA), and a 40 ml phlebotomy; the blood was used to measure platelet mitochondria cytochrome oxidase (COX) and citrate synthase (CS) activities. At the completion of this visit the next two weeks of study medication was dispensed, which uniformly consisted of 10 mg S-equol capsule.
(§2) At the end of this second two-week period participants returned to the ADC clinical trials unit for their second study visit (visit 2; active treatment evaluation). The same procedures were performed during the lead-in evaluation and dispensed the next two weeks of study medication, which at this point uniformly consisted of placebo.
(§3) At the end of this final two-week period the participants returned to the ADC clinical trials unit for their third study visit (visit 3; wash-out evaluation). The lead-in and active treatment evaluation procedures were performed again, which completed participation in this single-blind study.
Forty milliliter blood samples were collected in tubes containing acid-citrate-dextrose (ACD) tubes as an anticoagulant, and maintained at room temperature. Within 24 hours of phlebotomy the blood was processed by the ADC Mitochondrial Genomics and Metabolism Core. To initiate the processing procedure, platelets were isolated by centrifugation and enriched mitochondrial fractions prepared using previously described methods. Such procedures involved nitrogen cavitation to rupture platelets followed by centrifugation to collect mitochondria.
The protein concentrations of the enriched mitochondrial fractions were measured using a BCA protein assay kit (BioRad, Hercules, Calif.). COX Vmax activity was determined as a pseudo first order-rate constant (sec-1/mg) by measuring the oxidation of reduced cytochrome c at 550 nm.
In addition to measuring COX activity, each sample's citrate synthase (CS) Vmax activity (nmol/min/mg) was measured. This assay was performed spectrophotometrically by following the formation of 5-thio-2-nitrobenzoate (412 nm) following the addition of 100 μM oxaloacetate at 30° C. In addition to referencing COX activities to total protein, potential inter-sample differences in mitochondrial mass was corrected by referencing the COX activity for each sample to its corresponding CS activity.
An S-equol-associated modification of platelet mitochondria COX activity was designated as the primary outcome measure. To determine whether an S-equol-associated change in platelet mitochondrial COX activity occurred for an individual participant, an anticipated pattern of response analysis was used. It was expected that platelet mitochondria COX activity would increase in response to the active treatment.
Participants were identified as responding (i.e., increasing COX activity in response to treatment, classified as “successes” or “responders”) if the individual change (slope) from the lead-in measurement to the active treatment measurement was greater than the change (slope) from the active-treatment measurement to the wash-out (visit 3) measurement.

cytochrome oxidase (COX) = settings: brains from ovariectomized mice; cited from earlier work
[2] = tested on: Alzheimer's disease subjects; assay: Montreal Cognitive Assessment (MoCA) in single-blind S-equol pilot study; format: in vivo, human; settings: for MoCA Visit 3 (Mean ± SEM): wash-out evaluation, 2 weeks placebo after S-equol; for percent MoCA score change between visit 1 and visit 2: FIG. 1
Protocol: Alzheimer's disease subjects were recruited through the University of Kansas Alzheimer's Disease Center (ADC). The ADC maintains a clinical cohort whose routine characterizations include Clinical Dementia Rating (CDR) scale ratings, uniform data set (UDS) cognitive testing, and APOE genotyping. The diagnosis of clinic cohort participants is primarily based on CDR and UDS data, and is determined through a consensus conference that includes subspecialty-trained cognitive neurologists and an expert neuropsychologist. Subjects diagnosed with Alzheimer's disease further meet current criteria for that diagnosis in McKhann et al., Alzheimers Dement, 7 (2011) 263-269.
To qualify for the study, participants had to be female with very mild (CDR 0.5) or mild (CDR 1) Alzheimer's disease. Each participant was required to have a study partner. As part of the informed consent process, the subjects and study partners were told that during different parts of the study the participants would receive either an S-equol capsule or an inert placebo. The placebo could not be distinguished from the S-equol by sight, touch, or taste so although the investigators knew whether participants at any given point were receiving S-equol or placebo, the participants themselves were blind to the actual treatment. The S-equol and placebo capsule were provided by Ausio Pharmaceuticals, LLC (Cincinnati, Ohio).
as §1, §2, §3
(§4) Secondary outcomes included a safety analysis of the S-equol 10 mg twice per day dose and an analysis of MoCA scores.

[3] = tested on: Alzheimer's disease patients; assay: Safety analysis of S-equol 10 mg twice per day; format: in vivo, human; settings: S-equol 10 mg twice per day for two weeks
Protocol: as §1, §4

**Q.** Which results are given for `Oc1ccc([C@H]2COc3cc(O)ccc3C2)cc1` [S-equol]?
**A.** COX/CS Visit 3 (Mean ± SEM) ([1]; APOE4 carriers, 8 participants): 4.4e-05; COX/CS Visit 3 (Mean ± SEM) ([1]; APOE4 non-carriers, outlier excluded, 6 participants): 4.1e-05; COX/CS Visit 3 (Mean ± SEM) ([1]; APOE4 non-carriers, outlier included, 7 participants): 5.1E−05 ± 1.1E−05; COX/CS Visit 3 (Mean ± SEM) ([1]; Total, outlier excluded, 14 participants): 4.2e-05; COX/CS Visit 3 (Mean ± SEM) ([1]; Total, outlier included, 15 participants): 4.7e-05; percent COX/CS change between visit 1 and visit 2 ([1]; non-APOE4 carriers versus APOE4 carriers, FIG. 3): trended higher in the non-APOE4 carriers than it did in the APOE4 carriers; differences in mean COX/CS values between visits, or between APOE4 carriers and non-carriers ([1]; visits 1-3): No significant differences were observed; COX1 protein levels (cytochrome oxidase (COX)): increase; cytochrome oxidase (COX) activity (cytochrome oxidase (COX)): increase; MoCA Visit 3 (Mean ± SEM) ([2]; APOE4 carriers, 8 participants): 15.9 ± 2.7; percent MoCA score change between visit 1 and visit 2 ([2]; APOE4 carriers): trended in a downward direction; MoCA Visit 3 (Mean ± SEM) ([2]; APOE4 non-carriers, 7 participants): 12.4 ± 1.6; percent MoCA score change between visit 1 and visit 2 ([2]; APOE4 non-carriers): in an upward direction; MoCA Visit 3 (Mean ± SEM) ([2]; Total, 15 participants): 14.3 ± 1.6; differences in mean MoCA scores between visits, or between APOE4 carriers and non-carriers ([2]; visits 1-3): No significant differences were observed; adverse events [3]: No treatment-related adverse events (either serious or non-serious) were observed; also recorded: No adverse events occurred
